Data as given in paper PMC4666032, “KPT-330, a potent and selective exportin-1 (XPO-1) inhibitor, shows antitumor effects modulating the expression of cyclin D1 and survivin in prostate cancer models” (BMC Cancer, 2015).

Columns and labels:
Assay type in all cases: cell-based
CWR22 = assay: Growth/viability assay, IC50 at 72 h; settings: Homo sapiens; CWR22, Fig. 2g
Text: (§1) Four commercial (LnCaP, 22rv1, DU145 and PC3) and twelve non-commercial (LAPC-4 [44], CWR22, PCb2 [45], PC3Lymphnode, PC3M, PC3M-pro4 [46] and PC3M-Ln4 [47], LnCaP-104S [47], LnCaP104R1 [47], LnCaP-C81 [47], C4-2B [48], VCAP [49] and DuCaP [[49]) cell lines were selected for the in vitro experimental studies for their biological characteristics: LAPC-4 (Androgen receptor [AR] positive, androgen dependent with low Akt/mTOR activities, p53 wt); LnCaP (AR positive, androgen dependent with high Akt/mTOR activities, p53 wt); LnCaP-C81 and LnCaP-C4-2B (AR positive, androgen independent with high Akt/mTOR activities, p53 wt); 22rv1 (AR positive, androgen independent with low Akt/mTOR activities, p53 wt); PC3 (AR negative, with high Akt/mTOR activities and no p53 function (p53 del) and DU145 (AR negative, with low Akt/mTOR activities and mutant p53). PC3 and DU145 have been also transfected with AR to obtain PC3AR [50] and DU-AR [51]. Benign prostatic hyperplasia line (BPH1), and Prostatic epithelial lines (EPN and RWPE-1) were used as non-neoplastic controls. Cells were routinely cultured in appropriate medium supplemented with 10 % fetal bovine serum (FBS), 1 % pen-strep and 1 % L-glutamine (Invitrogen Corporation, Carlsbad, CA). To minimize the risk to work with misidentified and/or contaminated cell lines, DNA profiling was periodically carried out in-house to authenticate cell cultures. DNA was isolated from cell lines using a standard DNA isolation kit. STR profiling was performed by using GenePrint® 10 System (Promega Corporation, Madison, WI). An eight-capillary 3500 Genetic Analyzer (Applied Biosystems Life Technologies Europe BV, Monza, Italy) was used to separate and identify alleles using standard procedures. GenePrint® 10 System allows co-amplification and detection of eight human loci required by the guidelines ASN-0002. For non-commercial cell lines, the authentication process was carried out by comparing STR-fingerprints with those published by Adri van Bokhoven and co-workers. In addition, cell lines were stocked at very low passages and used at <15-20 subcultures.
(§2) Cells were seeded at a density of 2 x 10^4 cells/mL in 24-well plates. Cells were left to attach and grow in 5 % FCS DMEM for 24 h. After this time, cells were maintained in the appropriate culture conditions. Morphological controls were performed every day with an inverted phase-contrast photomicroscope (Nikon Diaphot, Tokyo, Japan) before cell trypsinization and counting. Cells were trypsinized and resuspended in 1.0 ml of saline, then counted using a NucleoCounter™ NC-100 (automated cell counter systems, Chemotec, Gydevang, Denmark). The effect on cell proliferation was measured by taking the mean cell number with respect to controls over time for the different treatment groups.
(§3) Viable cells were counted by using the NucleoCounter™ NC-100 (automated cell counter systems, Chemotec, Cydevang, DK). Apoptosis was evaluated by using Tali® Apoptosis Kit - Annexin V Alexa Fluor® 488 & Propidium Iodide-based, (Life Technologies Italia, Monza, Italy). Stained cells were then measured on a Tali® Image-Based Cytometer. Apoptosis was further confirmed by FACS analysis following the instructions of the manufacturer.
(§4) Six SINE analogs KPT-127, KPT-185, KPT-205, KPT-227, KPT251 and KPT-330 sharing a trifluoromethyl phenyl triazole scaffold, were investigated for their growth inhibitory and apoptotic potential in our PCa cell panel. Therefore, the effects of these XPO1 inhibitors were evaluated on the growth of PCa cell lines performing dose- and time-dependent studies. To examine the dose-dependent effects of these compounds, we treated cells with varying doses of the compounds (0, 1, 10, 50, 100, 500 and 1000 nM) and assessed viability at 72 hours after treatment. The IC50 for each compound was then calculated. […]

DuCaP = assay: Growth/viability assay, IC50 at 72 h; settings: Homo sapiens, Fig. 2g
Text: as §1, §2, §3, §4

EPN = assay: Growth/viability assay, IC50 at 72 h; settings: Homo sapiens, Fig. 2g
Text: as §1, §2, §3, §4

LnCaP-104S = assay: Growth/viability assay, IC50 at 72 h; settings: Homo sapiens, Fig. 2g
Text: as §1, §2, §3, §4

PC3M-Ln4 = assay: Growth/viability assay, IC50 at 72 h; settings: Homo sapiens; PC3M-Ln4, Fig. 2g
Text: as §1, §2, §3, §4

PC3AR = assay: Growth/viability assay, IC50 at 72 h; settings: Homo sapiens, PC3/AR, Fig. 2g
Text: as §1, §2, §3, §4

22rv1 = assay: Growth/viability assay, IC50 at 72 h; settings: Homo sapiens
Text: as §1, §2, §3, §4

PC3M-pro4 = assay: Growth/viability assay, IC50 at 72 h; settings: Homo sapiens; PC3M-pro4, Fig. 2g
Text: as §1, §2, §3, §4

PCb2 = assay: Growth/viability assay, IC50 at 72 h; settings: Homo sapiens; PCb2, Fig. 2g
Text: as §1, §2, §3, §4

BPH-1 = assay: Growth/viability assay, IC50 at 72 h; settings: Homo sapiens
Text: as §1, §2, §3, §4

C4-2B = assay: Growth/viability assay, IC50 at 72 h; settings: Homo sapiens, Fig. 2g
Text: as §1, §2, §3, §4

VCaP = assay: Growth/viability assay, IC50 at 72 h; settings: Homo sapiens, Fig. 2g
Text: as §1, §2, §3, §4

LnCaP = assay: Growth/viability assay, IC50 at 72 h; settings: Homo sapiens
Text: as §1, §2, §3, §4

LnCaP104R1 = assay: Growth/viability assay, IC50 at 72 h; settings: Homo sapiens; 104R1, Fig. 2g
Text: as §1, §2, §3, §4

PC3 = assay: Growth/viability assay, IC50 at 72 h; settings: Homo sapiens, PC-3
Text: as §1, §2, §3, §4

DU145 = assay: Growth/viability assay, IC50 at 72 h; settings: Homo sapiens, DU-145; DU145, Fig. 2g
Text: as §1, §2, §3, §4

DU-AR = assay: Growth/viability assay, IC50 at 72 h; settings: Homo sapiens, Fig. 2g
Text: as §1, §2, §3, §4

LnCaP-C81 = assay: Growth/viability assay, IC50 at 72 h; settings: Homo sapiens; C-81, Fig. 2g
Text: as §1, §2, §3, §4

LAPC-4 = assay: Growth/viability assay, IC50 at 72 h; settings: Homo sapiens
Text: as §1, §2, §3, §4

RWPE-1 = assay: Growth/viability assay, IC50 at 72 h; settings: Homo sapiens; RWPE-1, Fig. 2g
Text: as §1, §2, §3, §4

PCa cell lines = assay: Growth inhibition across the PCa cell panel; settings: Homo sapiens; 72 hours, range across the cell panel; read-out: IC50 values, range over PCa cell lines
Text: as §1, with “STR profiling was performed by using GenePrint® 10 System (Promega Corporation, Madison, WI). An eight-capillary 3500 Genetic Analyzer (Applied Biosystems Life Technologies Europe BV, Monza, Italy) was used to separate and identify alleles using standard procedures. GenePrint® 10 System allows co-amplification and detection of eight human loci required by the guidelines ASN-0002. For non-commercial cell lines, the authentication process was carried out by comparing STR-fingerprints with those published by Adri van Bokhoven and co-workers. In addition, cell lines were stocked at very low passages and used at <15-20 subcultures.” left out
Cells were seeded at a density of 2 x 10^4 cells/mL in 24-well plates. […] Cells were trypsinized and resuspended in 1.0 ml of saline, then counted using a NucleoCounter™ NC-100 (automated cell counter systems, Chemotec, Gydevang, Denmark). The effect on cell proliferation was measured by taking the mean cell number with respect to controls over time for the different treatment groups.
as §3, with “Apoptosis was further confirmed by FACS analysis following the instructions of the manufacturer.” left out
as §4

Row | SMILES | IC50 (CWR22) [nM] | IC50 (DuCaP) [nM] | IC50 (EPN) [nM] | IC50 (LnCaP-104S) [nM] | IC50 (PC3M-Ln4) [nM] | IC50 (PC3AR) [nM] | IC50 (22rv1; 22rv1, 72 hours, Fig. 2a-f) [nM] | IC50 (22rv1; 22rv1, Fig. 2g) [nM] | IC50 (PC3M-pro4) [nM] | IC50 (PCb2) [nM] | IC50 (BPH-1; BPH-1, BPH1, Fig. 2g) [nM] | IC50 (BPH-1; BPH-1, 72 hours, Fig. 2a-f) [nM] | IC50 (C4-2B) [nM] | IC50 (VCaP) [nM] | IC50 (LnCaP; 72 hours, Fig. 2a-f) [nM] | IC50 (LnCaP; Fig. 2g) [nM] | IC50 (LnCaP104R1) [nM] | IC50 (PC3; PC3, 72 hours, Fig. 2a-f) [nM] | IC50 (PC3; PC3, Fig. 2g) [nM] | IC50 (DU145) [nM] | also measured
1 | CC(C)OC(=O)/C=C\n1cnc(-c2cccc(Cl)c2)n1 [KPT-127] | 160 | 100 | 800 | 50 | 55 | 62 | 100 ± 10 | 100 | 90 | 44 | > 1000 | > 1000 | 25 | 100 | 43 ± 4 | 43 | 30 | 59 ± 3 | 59 | 55 | IC50 (DU-AR): 47 nM; IC50 (LnCaP-C81): 20 nM; IC50 (LAPC-4; LAPC4, LAPC-4, Fig. 2g): 201 nM; IC50 (LAPC-4; LAPC4, 72 hours, Fig. 2a-f): 201 ± 15 nM; IC50 (RWPE-1): 1000 nM; IC50 (PCa cell lines): 43 to 201 nM
2 | COc1cc(-c2ncn(/C=C\C(=O)OC(C)C)n2)cc(C(F)(F)F)c1 [KPT-185] | 230 | 270 | 1000 | 240 | 200 | 233 | 189 ± 84 | 160 | 330 | 215 | > 1000 | > 1000 | 179 | 400 | 268 ± 34 | 268 | 260 | 207 ± 44 | 207 | 177 | IC50 (DU-AR): 143 nM; IC50 (LnCaP-C81): 200 nM; IC50 (LAPC-4; LAPC4, LAPC-4, Fig. 2g): 321 nM; IC50 (LAPC-4; LAPC4, 72 hours, Fig. 2a-f): 321 ± 105 nM; IC50 (RWPE-1): 1000 nM; IC50 (PCa cell lines): 180 to 700 nM
3 | CC(C)OC(=O)/C=C\n1cnc(-c2cc(OC(C)C)cc(C(F)(F)F)c2)n1 [KPT-207] | 133 | 120 | 750 | 80 | 60 | 80 | 78 ± 19 | 78 | 125 | 67 | > 1000 | > 1000 | 144 | 130 | 113 ± 12 | 301 | 100 | 74 ± 5 | 74 | 90 | IC50 (DU-AR): 65 nM; IC50 (LnCaP-C81): 160 nM; IC50 (LAPC-4; LAPC4, LAPC-4, Fig. 2g): 115 nM; IC50 (LAPC-4; LAPC4, 72 hours, Fig. 2a-f): 101 ± 1 nM; IC50 (RWPE-1): 820 nM
4 | COc1cc(-c2ncn(/C=C\c3nnco3)n2)cc(C(F)(F)F)c1 [KPT-225] | 180 | 180 | 1000 | 120 | 80 | 144 | 204 ± 44 | 204 | 180 | 160 | > 1000 | > 1000 | 170 | 240 | 171 ± 30 | 171 | 160 | 122 ± 5 | 122 | 135 | IC50 (DU-AR): 112 nM; IC50 (LnCaP-C81): 180 nM; IC50 (LAPC-4; LAPC4, LAPC-4, Fig. 2g): 223 nM; IC50 (LAPC-4; LAPC4, 72 hours, Fig. 2a-f): 223 ± 31 nM; IC50 (RWPE-1): 1000 nM
